Results taken from PMC6413231, “o-Vanillin Derived Schiff Bases and Their Organotin(IV) Compounds: Synthesis, Structural Characterisation, In-Silico Studies and Cytotoxicity” (International Journal of Molecular Sciences, 2019).
Where two headings read alike, the source gives them in different places.

Assays:
[1] = test system: BE2-C (neuroblastoma) cancer cells; experiment: MTT growth inhibition assay, BE2-C; assay type: cell-based; conditions: 72 h, ± standard error, read-out: Growth Inhibition Concentration, GI50
Description: (§1) The Schiff bases and their organotin(IV) compounds were screened for in vitro cytotoxicity against a panel of 12 cancer cell lines: EJ-28 (muscle invasive bladder), RT-112 (minimum-invasive bladder), HT29 (colon), U87 and SJ-G2 (glioblastoma), MCF-7 (breast), A2780 (ovarian), H460 (lung), A431 (skin), DU145 (prostate), BE2-C (neuroblastoma), MIA (pancreatic) and one normal breast cell line (MCF-10A) using the MTT metabolic assay (Figure 6). After 72 h of incubation, a dose-dependent […] effect towards the cancer cell lines was measured at very low micromolar (µM) concentrations of the compounds. The growth inhibition concentration of the Schiff bases and their organotin(IV) compounds required to inhibit 50% cell proliferation relative to the cells that were treated with DMSO (control) are given in Table 2. The stability of these compounds was assessed in DMSO as well as in a mixture of DMSO-H2O. The absorbance obtained from UV-vis spectroscopy analysis was monitored for 72 h, and an unchanged pattern in the spectra was indicative that the compounds were stable in both the solvent systems tested.
(§2) For HT29 (colon), U87 and SJ-G2 (glioblastoma), MCF-7 (breast), A2780 (ovarian), H460 (lung), A431 (skin), Du145 (prostate), BE2-C (neuroblastoma), MIA (pancreas) cell lines and one normal breast cell line, MCF-10A (normal breast), the MTT assays were performed using the following method:
(§3) Stock solutions were prepared as follows and stored at −20 °C: Trial compounds were stored as 10 mM solutions in DMSO. All cell lines were cultured in a humidified atmosphere 5% CO2 at 37 °C. The cancer cell lines were maintained in Dulbecco’s modified Eagle’s medium (DMEM) (Trace Biosciences) supplemented with 10% foetal bovine serum, 10 mM sodium bicarbonate, penicillin (100 IU/mL), streptomycin (100 μg/mL) and glutamine (4 mM). The normal cell line, MCF-10A was cultured in DMEM:F12 (1:1) cell culture media, 5% heat inactivated horse serum, supplemented with penicillin (50 IU/mL), streptomycin (50 μg/mL), 20mM Hepes, L-glutamine (2 mM), epidermal growth factor (20 ng/mL), hydrocortisone (500 ng/mL), cholera toxin (100 ng/mL) and insulin (10 μg/mL).
(§4) Cells in logarithmic growth were transferred to 96-well plates. Cytotoxicity was determined by plating cells in duplicate in 100 μL medium at a density of 2500–4000 cells/well. On day 0 (24 h after plating), when the cells were in logarithmic growth, 100 μL medium, with or without the test agent, was added to each well. After 72 h drug exposure, growth inhibitory effects were evaluated using the MTT (3-[4,5-dimethylthiazol-2-yl]-2,5-diphenyltetrazolium bromide) assay and absorbance read at 540 nm. Percentage growth inhibition was determined at a fixed drug concentration of 25 μM. A value of 100% was indicative of complete cell growth inhibition. Those analogues showing appreciable percentage growth inhibition underwent further dose-response analysis allowing for the calculation of a GI50 value. This value is the drug concentration at which cell growth is 50% inhibited based on the difference between the optical density values on day 0 and those at the end of drug exposure.

[2] = test system: RT-112 (minimum-invasive bladder) cancer cells; experiment: MTT cytotoxicity assay, RT-112; assay type: cell-based, human; conditions: RT-112 cells, 72 h, ± standard error, read-out: Growth Inhibition Concentration, GI50
Description: as §1
(§5) The inhibitory effect of the synthesised compounds on the growth of bladder (EJ-28 and RT-112) cancer cells was evaluated by MTT assay. […] RT-112 and EJ-28, human bladder cancer cell lines used in this study (ATCC, Manassas, VA, USA) were cultured in RPMI-1640 (High glucose) medium supplemented with 10% fetal bovine serum containing 1% penicillin. The cells were cultured at 37 °C in a humidified atmosphere of 5% CO2 in air. Cells were seeded in 96-well plates at 6000 cells per well for 24 h, then they were treated with different concentrations of compounds for 72 h. The medium was subsequently removed and the wells were washed with 200 µL of phosphate buffer saline. Aliquots of 20 µL of 3-(4,5-dimethylthiazol-2-yl)-2,5-diphenyltetrazolium bromide (MTT) was added to each well and incubated for 4 h at 37 °C. Aliquots of 200 µL of media was then removed from each well and 200 µL of DMSO was added. Optical density (OD) was measured using an ELISA plate reader at 570 nm. Control wells (100% viability), containing media and DMSO, were included in all the experiments. All data points represented an average of triplicate assays. Cytotoxicity was expressed as CD50, i.e., the concentration that reduced the absorbance of treated cells by 50% with reference to the control (untreated cells).

[3] = test system: MCF-10A (normal breast) cell line; experiment: MTT growth inhibition assay, MCF10A; assay type: cell-based; conditions: MCF10A normal breast cells, 72 h, ± standard error, read-out: Growth Inhibition Concentration, GI50
Description: as §1, §2, §3, §4

A431 (skin) cancer cells = experiment: MTT growth inhibition assay, A431; assay type: cell-based; conditions: ± standard error, read-out: Growth Inhibition Concentration, GI50
Description: as §1, §2, §3, §4

[4] = test system: U87 (glioblastoma) cancer cells; experiment: MTT growth inhibition assay, U87; assay type: cell-based; conditions: 72 h, ± standard error, read-out: Growth Inhibition Concentration, GI50
Description: as §1, §2, §3, §4

[5] = test system: A2780 (ovarian) cancer cells; experiment: MTT growth inhibition assay, A2780; assay type: cell-based; conditions: 72 h, ± standard error, read-out: Growth Inhibition Concentration, GI50
Description: as §1, §2, §3, §4

[6] = test system: Du145 (prostate) cancer cells; experiment: MTT growth inhibition assay, Du145; assay type: cell-based; conditions: ± standard error, read-out: Growth Inhibition Concentration, GI50
Description: as §1, §2, §3, §4

H460 (lung) cancer cells = experiment: MTT growth inhibition assay, H460; assay type: cell-based; conditions: ± standard error, read-out: Growth Inhibition Concentration, GI50
Description: as §1, §2, §3, §4

[7] = test system: MCF-7 (breast) cancer cells; experiment: MTT growth inhibition assay, MCF-7; assay type: cell-based; conditions: 72 h, ± standard error, read-out: Growth Inhibition Concentration, GI50
Description: as §1, §2, §3, §4

[8] = test system: HT29 (colon) cancer cells; experiment: MTT growth inhibition assay, HT29; assay type: cell-based; conditions: ± standard error, read-out: Growth Inhibition Concentration, GI50
Description: as §1, §2, §3, §4

[9] = test system: MIA (pancreatic) cancer cells; experiment: MTT growth inhibition assay, MIA; assay type: cell-based; conditions: 72 h, ± standard error, read-out: Growth Inhibition Concentration, GI50
Description: as §1, §2, §3, §4

[10] = test system: EJ-28 (muscle invasive bladder) cancer cells; experiment: MTT cytotoxicity assay, EJ-28; assay type: cell-based, human; conditions: EJ-28 cells, 72 h, ± standard error, read-out: Growth Inhibition Concentration, GI50
Description: as §1, §5

[11] = test system: SJ-G2 (glioblastoma) cancer cells; experiment: MTT growth inhibition assay, SJ-G2; assay type: cell-based; conditions: for GI50: MTT, 72 h, ± standard error, read-out: Growth Inhibition Concentration, GI50
Description: as §1, §2, §3, §4

calf thymus DNA (CT-DNA) = experiment: CT-DNA binding by UV-vis absorption titration; conditions: for Bathochromism Shift (nm) / Hypochromism, (%): CT-DNA, UV-vis absorption titration; for Gibbs Free Energy: interaction with CT-DNA
Description: Both theoretical and experimental DNA binding of the synthesised organotin(IV) compounds with DNA were investigated. The interaction of organotin(IV) compounds with CT-DNA was elucidated via UV-visible absorption spectroscopy. […] The absorption spectra of diphenyltin(IV) compounds at a constant concentration (50 μM) in the absence and the presence of different concentrations of CT-DNA are shown in Figure 8. Upon increasing concentrations of CT-DNA, hypochromism and bathochromism occurred at around 350–377 nm indicating strong π–π stacking interactions between the aromatic chromophore of the organotin(IV) compounds and the nitrogeneous pair of the DNA strand [11, 70]. The same hypochromism and bathochromism shifts were also observed in other transitions. In order to compare the binding strength of the organotin(IV) compounds to CT-DNA, the intrinsic binding constants (Kb) were quantitatively determined and are presented in Table 3.
DNA binding experiments were carried out at 25°C. DNA concentration per nucleotide was determined using the molar absorption coefficient (6600 M^−1 cm^−1) at 260 nm. […] Absorption titration experiments were performed maintaining the concentration of the organotin(IV) compounds solutions at 50 µM and gradually increasing the concentration of CT-DNA. The organotin(IV) compounds were dissolved in DMSO and diluted with Tris-HCI buffer at room temperature (25 °C). The solutions were scanned over 230–600 nm. Absorbance values were recorded 10 min after the addition of DNA solution. The binding constant, Kb was determined using the equation: [DNA]/(εa−εf)=[DNA]/(εb−εf)+1/Kb(εb−εf) where [DNA] is the concentration of DNA in base pairs, εa corresponds to the apparent molar extinction coefficient Aabs/[M], εf corresponds to the extinction coefficient for the free organotin [M] and εb corresponds to the extinction coefficient for the fully bound organotin compound.

[12] = Homo sapiens, MCF7, MCF-7 cells

GI50 ([1]; Homo sapiens, BE(2)-C)	GI50 (A431 (skin) cancer cells; Homo sapiens, A-431, 72 h)	SMILES	GI50 ([2]; Homo sapiens)	GI50 ([3]; Homo sapiens, MCF-10A)	GI50 [11]	GI50 [1]	GI50 [2]	GI50 [3]	Bathochromism Shift (nm) (calf thymus DNA (CT-DNA))	Hypochromism, (%) (calf thymus DNA (CT-DNA))	Gibbs Free Energy (calf thymus DNA (CT-DNA))	GI50 (A431 (skin) cancer cells; 72 h)	GI50 [4]	GI50 [5]	GI50 ([6]; 72 h)	GI50 (H460 (lung) cancer cells; 72 h)	GI50 ([7]; MCF-7 cells)	GI50 ([8]; 72 h)	GI50 [9]	GI50 [10]	also measured
2.8 ± 0.2 µM	3 ± 0.15 µM	COc1cccc(/C=N/NC(=S)SCc2ccccc2)c1O [SBoVaH, S-Benzyl-β-N-(2-hydroxy-3-methoxybenzylmethylene) Dithiocarbazate]	3.7 ± 0.57 µM	3 ± 0.07 µM	2.4 ± 0.26 µM	–	–	–	–	–	–	–	–	–	–	–	–	–	–	–	GI50 ([4]; Homo sapiens, U-87 MG): 3.1 ± 0.26 µM; GI50 ([5]; Homo sapiens): 3 ± 0.06 µM; GI50 ([6]; Homo sapiens, DU-145, 72 h): 3.4 ± 0.3 µM; GI50 (H460 (lung) cancer cells; Homo sapiens, NCI-H460, 72 h): 3.3 ± 0.21 µM; melting point: 173 to 174 °C; GI50 [7, 12]: 2.5 ± 0.12 µM; GI50 ([8]; Homo sapiens, HT-29, 72 h): 2.2 ± 0.033 µM; GI50 ([9]; Pancreatic cancer cell): 4.5 ± 0.25 µM; GI50 ([10]; Homo sapiens): 3.1 ± 0.2 µM
3.6 ± 0.27 µM	4.2 ± 0.74 µM	COc1cccc(/C=N/NC(=S)SCc2ccc(C)cc2)c1O [S4MoVaH, S-4-Methybenzyl-β-N-(2-hydroxy-3-methoxybenzylmethylene)dithiocarbazate]	3.2 ± 0.51 µM	3.5 ± 0.23 µM	3.3 ± 0.87 µM	–	–	–	–	–	–	–	–	–	–	–	–	–	–	–	GI50 ([4]; Homo sapiens, U-87 MG): 3.9 µM; GI50 ([5]; Homo sapiens): 3.1 ± 0.4 µM; GI50 ([6]; Homo sapiens, DU-145, 72 h): 5.4 ± 0.23 µM; GI50 (H460 (lung) cancer cells; Homo sapiens, NCI-H460, 72 h): 5.5 ± 0.73 µM; melting point: 177 to 178 °C; GI50 [7, 12]: 3.5 µM; GI50 ([8]; Homo sapiens, HT-29, 72 h): 8 ± 3.5 µM; GI50 ([9]; Pancreatic cancer cell): 11 ± 2.3 µM; GI50 ([10]; Homo sapiens): 3.6 ± 0.44 µM
–	–	COc1cccc2c1[O][Sn]([CH3])([CH3])[S]C(SCc1ccccc1)=NN=C2 [Me2Sn(SBoVa), Dimethyltin(IV) [S-Benzyl-β-N-(2-hydroxy-3-methoxybenzylmethylene) dithiocarbazate]]	–	–	2.1 ± 0.12 µM	2.7 ± 0.13 µM	2.4 ± 0.33 µM	2.8 ± 0.41 µM	1 nm	53.26%	-8.99 kcal/mol	3.2 ± 0.03 µM	4.5 ± 0.19 µM	3.2 ± 0.03 µM	3.2 ± 0.13 µM	3.8 ± 0.1 µM	2.5 ± 0.21 µM	2.8 ± 0.15 µM	5 ± 0.09 µM	3.4 ± 0.3 µM	–
–	–	COc1cccc2c1[O][Sn]([c]1ccccc1)([c]1ccccc1)[S]C(SCc1ccccc1)=NN=C2 [Ph2Sn(SBoVa), Diphenyltin(IV) [S-Benzyl-β-N-(2-hydroxy-3-methoxybenzylmethylene) dithiocarbazate]]	–	–	0.74 ± 0.15 µM	0.5 ± 0.05 µM	0.58 ± 0.29 µM	1.3 ± 0.2 µM	12 nm	70.72%	-8.29 kcal/mol	1.6 ± 0.07 µM	1.1 ± 0.39 µM	0.23 ± 0.03 µM	1.4 ± 0.33 µM	2.2 µM	0.9 ± 0.16 µM	1.2 ± 0.22 µM	0.43 ± 0.04 µM	0.32 ± 0.05 µM	greater activity than respective Schiff base ([11]; GI50 comparison): 3 fold
–	–	COc1cccc2c1[O][Sn]([CH3])([CH3])[S]C(SCc1ccc(C)cc1)=NN=C2 [Me2Sn(S4MoVa), Dimethyltin(IV) [S-4-Methybenzyl-β-N-(2-hydroxy-3-methoxybenzylmethylene) dithiocarbazate]]	–	–	3.1 ± 0.55 µM	3.3 ± 0.23 µM	> 5 µM	3.3 ± 0.15 µM	7 nm	43.72%	-7.67 kcal/mol	4.2 ± 0.34 µM	3.3 ± 0.18 µM	3.1 ± 0.63 µM	4.2 ± 0.1 µM	4.7 ± 0.46 µM	3.3 ± 0.32 µM	6.9 ± 3.5 µM	8.9 ± 1.3 µM	> 5 µM	–
–	–	COc1cccc2c1[O][Sn]([CH3])([CH3])[S]C(SCc1ccccc1C)=NN=C2 [Me2Sn(S2MoVa), Dimethyltin(IV) [S-2-Methybenzyl-β-N-(2-hydroxy-3-methoxybenzylmethylene) dithiocarbazate]]	–	–	2.5 ± 0.3 µM	2.9 ± 0.03 µM	2.4 ± 0.77 µM	3 ± 0.09 µM	10 nm	37.97%	-7.55 kcal/mol	3 ± 0.03 µM	3.6 ± 0.23 µM	3.1 ± 0.06 µM	3.9 ± 0.03 µM	3.3 ± 0.13 µM	3.1 ± 0.12 µM	2.7 ± 0.1 µM	3.9 ± 0.07 µM	2.5 ± 0.78 µM	–
